# Test system: G. duodenalis BRIS/91/HEPU/1279
# Assay: Primary Giardia screen at 10 µM (live-cell imaging, automated counting)
# Format: cell-based, Giardia duodenalis
# Conditions: 24 h
# Summary of the method: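 Compound added to 10 μM final in medium with 0.2% DMSO, one well each; plates then held in sealed chambers at 3% O2, 5% CO2 in N2; growth imaged and counted automatically at 24 and 48 h; values normalised to vehicle wells minus media blank.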
row,Structure (SMILES),Average % Inhibition 24h [%]
1,O=C(NC1CCCCCC1)c1cc2cn(C3CC3)cc2s1 [SN00802023],1.8
2,Cc1sc(C(=O)N2CCCC2)c2ncnc(NCc3cccc(Cl)c3)c12 [SN00803183],15.6

# Same assay, conditions: 24 h, first singlicate assay
row,Structure (SMILES),% Inhibition n=1 24h [%]
1,O=C(NC1CCCCCC1)c1cc2cn(C3CC3)cc2s1 [SN00802023],3.6
2,Cc1sc(C(=O)N2CCCC2)c2ncnc(NCc3cccc(Cl)c3)c12 [SN00803183],29.7

# Same assay, conditions: 24 h, re-assessment
row,Structure (SMILES),% Inhibition n=2 24h [%]
1,O=C(NC1CCCCCC1)c1cc2cn(C3CC3)cc2s1 [SN00802023],0.0
2,Cc1sc(C(=O)N2CCCC2)c2ncnc(NCc3cccc(Cl)c3)c12 [SN00803183],1.5

# Same assay, conditions: 48 h
row,Structure (SMILES),Average % Inhibition 48h [%]
1,O=C(NC1CCCCCC1)c1cc2cn(C3CC3)cc2s1 [SN00802023],46.9
2,Cc1sc(C(=O)N2CCCC2)c2ncnc(NCc3cccc(Cl)c3)c12 [SN00803183],27.6

# Same assay, conditions: 48 h, first singlicate assay
row,Structure (SMILES),% Inhibition n=1 48h [%]
1,O=C(N[C@H]1C[C@@H]2C[C@H]1CN2S(=O)(=O)c1ccc2c(c1)CCCC2)c1cccnc1 [SN00800980],0.6
2,O=C(Cc1ccccc1F)N1CCC(Nc2cccnc2)C1 (stereo not drawn) [SN00801060],18.5
3,CCn1nccc1C(=O)NC1CCN(c2nccnc2OC)C1 (stereo not drawn) [SN00801093],0.0
4,O=C(c1cccc2[nH]ccc12)N1CCC(c2nc(-c3ccccc3)no2)C1 (stereo not drawn) [SN00801115],23.0
5,CCn1cc(CN2CCC(OCc3nc(C4CC4)no3)CC2)cn1 [SN00801138],0.0
6,O=C(c1ccco1)N1CCC(OCc2nc(-c3ccncc3)no2)CC1 [SN00801147],18.6
7,Cc1noc(COC2CCCN(C(=O)c3nn(C)c4ccccc34)C2)n1 (stereo not drawn) [SN00801154],0.0
8,COc1cccc(C(=O)N(CC2CCOC2)C2CC2)c1 (stereo not drawn) [SN00801182],0.0
9,CN(CC1CCOC1)C(=O)Cc1ccccc1 (stereo not drawn) [SN00801209],0.0
10,CN(C)[C@@H]1CN(C(=O)c2ccco2)CC[C@]1(O)c1ccccc1 [SN00801222],3.1
11,CN(C)CC1CN(S(=O)(=O)c2ccccc2)CC12CCOCC2 (stereo not drawn) [SN00801264],0.0
12,CN(C)CC1CN(S(=O)(=O)C2CC2)CC12CCOCC2 (stereo not drawn) [SN00801268],16.1
13,CN(C)[C@@H]1CN(Cc2ccc3[nH]ccc3c2)CC[C@H]1CO [SN00801277],6.2
14,CN1C(=O)CC[C@]2(CNC(=O)C3(c4ccccc4)CC3)CCC[C@@H]12 [SN00801306],21.4
15,COCC1CN(C(=O)c2ccc(OC)cc2)CC12CCOCC2 (stereo not drawn) [SN00801332],24.3
16,CC1(c2nc(C3CC3)no2)CCCN(C(=O)CCC2CCCC2)C1 (stereo not drawn) [SN00801392],3.8
17,COc1ccc(C2CCC(=O)N2CCN2CCOCC2)cc1 (stereo not drawn) [SN00801430],34.6
18,CCC(=O)N1CCc2c(sc3ncnc(N(C)C4CCN(C)CC4)c23)C1 [SN00801485],0.0
19,CC(C)S(=O)(=O)N1CCC(N(C)C2CCOCC2)CC1 [SN00801518],0.0
20,CN1CCC(OC2CCN(C(=O)CC3CCCC3)CC2)CC1 [SN00801545],26.4
21,CNC(=O)N1CCC(C2CCN(C(=O)c3ccncc3)CC2)C1 (stereo not drawn) [SN00801593],4.5
22,CCc1ccc(NC(=O)Cn2nc3n(c2=O)CCCC3)cc1 [SN00801641],9.1
23,O=C(Cn1nc2n(c1=O)CCCC2)NCc1ccccc1Br [SN00801654],6.0
24,O=C(c1cnccn1)N1CCCC1c1nc(-c2ccccc2)no1 (stereo not drawn) [SN00801675],0.0
25,COc1ccc(C2(C(=O)N3CCC(Cc4nc(-c5ccc(F)cc5)no4)CC3)CC2)cc1 [SN00801690],0.0
26,CCc1ccc(C(=O)N2CCC(Cc3nc(-c4ccc(OC)cc4)no3)CC2)cc1 [SN00801692],0.0
27,CC(C)(C)c1ccc(C(=O)N2CCC3(CC2)NC(c2ccccc2)=NO3)cc1 [SN00801741],0.0

row,Structure (SMILES),% Inhibition n=1 48h [%]
1,O=C1CC(c2noc(-c3ccc(F)cc3)n2)CN1c1ccc(F)cc1 (stereo not drawn) [SN00801778],9.0
2,COc1ccc(N2CC(c3noc(-c4ccc(C(C)(C)C)cc4)n3)CC2=O)cc1 (stereo not drawn) [SN00801793],0.0
3,O=C(Nc1ccc(N2CCN(C3CCCCC3)C2=O)nc1)c1ccc(Cl)s1 [SN00801852],26.3
4,O=C(c1cn2ccnc(-c3ccccc3)c2n1)N1CCCCC1 [SN00801929],30.6
5,Cc1scc2nc(C(N)=O)nc(N3CCCC3)c12 [SN00801956],22.6
6,COCCn1c(C2CCN(S(=O)(=O)c3cccs3)C2)nc2cccnc21 (stereo not drawn) [SN00802004],5.3
7,O=C(NC1CCCCCC1)c1cc2cn(C3CC3)cc2s1 [SN00802023],43.4
8,CC(C)n1cc2cc(C(=O)NCCCN3CCCc4ccccc43)sc2c1 [SN00802034],3.6
9,c1cnc(-c2nnc(C3CCCNC3)[nH]2)cn1 (stereo not drawn) [SN00802129],2.3
10,CCC(=O)N1CC(C(=O)NCCN(C)C)C2(CCOCC2)C1 (stereo not drawn) [SN00802145],13.1
11,Cc1nc(C)c2c(n1)N(CCN(C)C1CCCCC1)C(=O)CC2 [SN00802202],0.0
12,Cc1nc(-c2ccncc2)nc2c1CCC(=O)N2CCC1=CCCCC1 [SN00802205],0.0
13,CCNC(=O)c1c(C)oc2c1CNCC2 [SN00802246],10.3
14,CCC1(N2CCN(C)CC2)CCN(S(=O)(=O)c2ccccc2)C1 (stereo not drawn) [SN00802274],2.6
15,CCCCN1CCN(C(=O)c2cc3c(=O)n(CC(C)C)c4ccccc4n3n2)CC1 [SN00802291],12.0
16,Cc1ccc(CNC(=O)N2CCCN(C3CCN(CC4CC4)C3=O)CC2)cc1 (stereo not drawn) [SN00802402],5.4
17,COCCN1CCC(N2CCCN(C(=O)NCCc3ccccc3)CC2)C1=O (stereo not drawn) [SN00802413],1.7
18,CCOc1ccccc1CNC(=O)c1nc(C(C)C)oc1C [SN00802425],24.0
19,Cc1oc(C2CCC2)nc1C(=O)NC(C)c1ccccn1 (stereo not drawn) [SN00802442],17.0
20,COc1ccc(-c2ccnc3c(C(=O)NCc4ccc5c(c4)OCO5)cnn23)cc1OC [SN00802455],16.8
21,CCN(CC)CCCC(C)NC(=O)c1cc(-c2ccco2)on1 (stereo not drawn) [SN00802522],3.7
22,COC(=O)C(C)n1cnc2c(nnn2Cc2ccc(C)cc2)c1=O (stereo not drawn) [SN00802538],3.2
23,COc1cccc(-c2noc(C3CCCCN3C(=O)Nc3ccc(Cl)cc3Cl)n2)c1 (stereo not drawn) [SN00802548],5.7
24,COC(=O)C(C)n1cnc2c(nnn2Cc2ccccc2F)c1=O (stereo not drawn) [SN00802558],11.4
25,Cc1ccccc1C(=O)N[C@@H]1CCCC[C@H]1NC(=O)C1CCCN(C(=O)c2ccc(Cl)cc2)C1 (stereo partly drawn) [SN00802559],3.9
26,O=C(Cn1cnc2c(nnn2Cc2ccc(Cl)cc2)c1=O)NC1CCCC1 [SN00802568],16.4
27,CCCN(C)C(=O)Cn1c(=O)n(-c2ccc(F)cc2)c(=O)c2ccccc21 [SN00802614],32.9

row,Structure (SMILES),% Inhibition n=1 48h [%]
1,O=C(c1ccc(F)cc1)N1CCc2[nH]nc(C(=O)N3CCN(c4ccc(F)cc4)CC3)c2C1 [SN00802630],0.9
2,CCn1nc(C(=O)NCc2ccccc2F)cc1-c1cc(C)sc1C [SN00802641],9.7
3,Cc1ccccc1-n1nc(C(=O)N(C)Cc2ccco2)nc1CCc1ccccc1 [SN00802642],5.4
4,CCOC(=O)CC(=O)Nc1ccc(-c2onc3c2CCc2cc(OC)ccc2-3)cc1 [SN00802675],5.3
5,O=c1c2c(ncn2Cc2ccc(F)cc2)n(-c2ccccc2)c(=O)n1C1CCCC1 [SN00802718],6.1
6,Cc1cccc2c1NC1(CCN(S(=O)(=O)c3ccc(C(C)(C)C)cc3)CC1)NC2=O [SN00802737],13.3
7,COc1ccc(-n2nc3c(c2NC(=O)c2ccc([N+](=O)[O-])cc2)CS(=O)(=O)C3)cc1 [SN00802781],12.4
8,CCn1nc(C(=O)NCCOc2ccccc2)cc1-c1cc(C)sc1C [SN00802783],0.0
9,Cc1ccc(-n2nc3c(c2NC(=O)COc2ccccc2)CS(=O)(=O)C3)c(C)c1 [SN00802785],16.6
10,CC(C)(C)c1cc2nc(-c3ccccc3)cc(C(=O)NC3CCCCNC3=O)n2n1 (stereo not drawn) [SN00802787],0.0
11,CCN(CC)C(=O)c1cc(-c2cccs2)nc2cc(C)c(C)cc12 [SN00802800],16.9
12,COc1ccc(C2NC(=O)NC(C)=C2C(=O)c2ccccc2)cc1 (stereo not drawn) [SN00802824],12.9
13,CCOC(=O)c1csc(-n2nc(CC(C)C)cc2C(F)(F)F)n1 [SN00802831],29.0
14,Cc1ccc(Cn2ccc3nc(N4CCCCC4)ncc3c2=O)cc1 [SN00802904],15.1
15,CCn1cc(C(=O)Nc2ccccc2O)c(=O)c2cc(F)c(N3CCN(C(C)=O)CC3)cc21 [SN00802927],0.0
16,CCOc1ccc(S(=O)(=O)N(C)Cc2c(C)nn(C)c2C)cc1 [SN00802962],2.3
17,Cc1cc(C)cc(N2CCN(CCCNC(=O)c3nc(-c4ccncn4)no3)CC2)c1 [SN00802991],0.0
18,Cc1sc2ncn(CCN(C)C)c(=O)c2c1C(=O)Nc1ccc(S(N)(=O)=O)nc1 [SN00803001],26.5
19,COc1ccc(CNC(=O)N2CCC(c3ccn4ncc(C(=O)N5CCOCC5)c4c3)CC2)cc1 [SN00803088],0.7
20,COc1ccc(CC(=O)NC2CCN(c3nc4c(s3)c(C)nn4-c3cccc(C)c3)CC2)cc1 [SN00803147],1.5
21,Cc1nn(-c2ccc(F)cc2)c2nc(N3CCCN(C(=O)Cc4cccs4)CC3)sc12 [SN00803162],27.0
22,Cc1ccc(-n2nc(C)c3sc(N4CCCN(C(=O)c5ccc6c(c5)OCO6)CC4)nc32)cc1 [SN00803168],0.0
23,Cc1sc(C(=O)N2CCCC2)c2ncnc(NCc3cccc(Cl)c3)c12 [SN00803183],47.9
24,Cc1sc(C(=O)N2CCCC2)c2ncnc(NCc3ccc(F)c(Cl)c3)c12 [SN00803192],23.9
25,CCN1CCN(c2ccc3nnc(C(C)C)n3n2)CC1 [SN00803240],0.4
26,COc1ccccc1CNC(=O)CCN1C(=O)c2ccccc2C1=O [SN00807762],30.7

# Same assay, conditions: 48 h, re-assessment
row,Structure (SMILES),% Inhibition n=2 48h [%]
1,O=C(NC1CCCCCC1)c1cc2cn(C3CC3)cc2s1 [SN00802023],50.4
2,Cc1sc(C(=O)N2CCCC2)c2ncnc(NCc3cccc(Cl)c3)c12 [SN00803183],7.3
